Assay results published in ChEMBL document CHEMBL3352076, “Synthesis of novel triazole-linked mefloquine derivatives: biological evaluation against Plasmodium falciparum” (Bioorg Med Chem Lett, 2014).

Test system: Plasmodium falciparum
Experiment: Antimalarial activity against chloroquine-sensitive Plasmodium falciparum NF54
Format: functional, organism-based

Compound | IC50
O[C@@H](c1cc(C(F)(F)F)nc2c(C(F)(F)F)cccc12)[C@H]1CCCCN1 [(S,R)-MEFLOQUINE] | 20 µM
FC(F)(F)c1cc(-n2cc(CNC3C4CC5CC(C4)CC3C5)nn2)c2cccc(C(F)(F)F)c2n1 (stereo unspecified) | 1 µM
FC(F)(F)c1cc(-n2cc(CN3CCN(Cc4c[nH]c5ccccc45)CC3)nn2)c2cccc(C(F)(F)F)c2n1 | 1.3 µM
FC(F)(F)c1cc(-n2cc(CN(Cc3ccccc3)Cc3ccccc3)nn2)c2cccc(C(F)(F)F)c2n1 | 9.1 µM
FC(F)(F)c1cc(-n2cc(CN3CCN(Cc4ccccc4)CC3)nn2)c2cccc(C(F)(F)F)c2n1 | 25.6 µM
FC(F)(F)c1cc(-n2cc(CN(C3CCCCC3)C3CCCCC3)nn2)c2cccc(C(F)(F)F)c2n1 | 3.26 µM
FC(F)(F)c1cc(-n2cc(CN3CCN(C4CCCCC4)CC3)nn2)c2cccc(C(F)(F)F)c2n1 | 31.8 µM
CC(C)N(Cc1cn(-c2cc(C(F)(F)F)nc3c(C(F)(F)F)cccc23)nn1)C(C)C | 4.8 µM
CC(C)(C)NCc1cn(-c2cc(C(F)(F)F)nc3c(C(F)(F)F)cccc23)nn1 | 2.8 µM
FC(F)(F)c1cc(-n2cc(CN3CCN(Cc4ccncc4)CC3)nn2)c2cccc(C(F)(F)F)c2n1 | 10.6 µM
FC(F)(F)c1cc(-n2cc(CN3CCN(C4C5CC6CC(C5)CC4C6)CC3)nn2)c2cccc(C(F)(F)F)c2n1 (stereo unspecified) | 14.1 µM
